Data published in patent publication US6235759A, “Dihydropyridinones and pyrrolinones useful as alpha 1A adrenoceptor antagonists” (Merck & Co., Inc., priority 1999, dated 2001).

Experiments:
[1] = target: T1, human alpha 1a adrenergic receptor (Homo sapiens, UniProt P35348); experiment: Screening Assay: Alpha 1a Adrenergic Receptor Binding ([125I]-HEAT competition)
T1 construct: expressed in transfected cells; host or cells: stably transfected human alpha 1a cell line (ATCC CRL 11140)
T1 sequence (P35348 1-466): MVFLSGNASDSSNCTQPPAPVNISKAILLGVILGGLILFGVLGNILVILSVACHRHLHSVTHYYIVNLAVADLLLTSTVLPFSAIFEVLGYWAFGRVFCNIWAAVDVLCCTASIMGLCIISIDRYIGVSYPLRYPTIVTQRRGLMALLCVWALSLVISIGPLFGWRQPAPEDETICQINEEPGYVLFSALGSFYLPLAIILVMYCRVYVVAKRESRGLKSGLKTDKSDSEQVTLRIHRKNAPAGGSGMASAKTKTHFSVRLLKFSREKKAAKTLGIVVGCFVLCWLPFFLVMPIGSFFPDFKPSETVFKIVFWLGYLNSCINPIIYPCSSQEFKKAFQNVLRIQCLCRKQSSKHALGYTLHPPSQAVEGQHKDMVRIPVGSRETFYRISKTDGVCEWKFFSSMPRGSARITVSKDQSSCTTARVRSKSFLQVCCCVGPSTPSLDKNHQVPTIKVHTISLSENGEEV
Description: Screening Assay: Alpha 1a Adrenergic Receptor Binding
Membranes prepared from the stably transfected human alpha 1a cell line (ATCC CRL 11140) were used to identify compounds that bind to the human alpha 1a adrenergic receptor. These competition binding reactions (total volume=200 μl) contained 50 mM Tris-HCl pH. 7.4, 5 mM EDTA, 150 mM NaCl, 100 pM [^125 I]-HEAT, membranes prepared from the alpha 1a cell line and increasing amounts of unlabeled ligand. Reactions were incubated at room temperature for one hour with shaking. Reactions were filtered onto Whatman GF/C glass fiber filters with a Inotec 96 well cell harvester. Filters were washed three times with ice cold buffer and bound radioactivity was determined (Ki).

[2] = test system: human alpha 1b adrenergic receptor; experiment: Selective Binding Assay, alpha 1b ([125I]-HEAT competition); settings: alpha 1a versus alpha 1b
Description: Membranes prepared from stably transfected human alpha 1d and alpha 1b cell lines (ATCC CRL 11138 and CRL 11139, respectively) were used to identify compounds that selectively bind to the human alpha 1a adrenergic receptor. These competition binding reactions (total volume=200 μl) contained 50 mM Tris-HCl pH. 7.4, 5 mM EDTA, 150 mM NaCl, 100 pM [^125 I]-HEAT, membranes prepared from cell lines transfected with the respective alpha 1 subtype expression plasmid and increasing amounts of unlabeled ligand. Reactions were incubated at room temperature for one hour with shaking. Reactions were filtered onto Whatman GF/C glass fiber filters with a Inotec 96 well cell harvester. Filters were washed three times with ice cold buffer and bound radioactivity was determined (Ki).

Compound: CC1=C(C(=O)NCCCN2CCC(C#N)(c3ccccn3)CC2)[C@@H](c2ccc(F)c(F)c2)CC(=O)N1C [Example 17, 4-(R)-(3 ,4-Difluorophenyl)-1,6-dimethyl-3,4-dihydro-2-pyridinone-5-carboxylic acid{3-[4-(2-pyridyl)-4-cyano-piperidine-1-yl]-propyl}amide]
- Ki ([1]; human alpha 1a cell line membranes, 100 pM [125I]-HEAT, room temperature, one hour): 257 nM
- selectivity in binding to alpha 1a receptors versus alpha 1b [2]: about 8 fold

Compound: CC1=C(C(=O)NCCCN2CCC(c3ccc(F)cc3)CC2)[C@H](c2ccc(F)c(F)c2)CC(=O)N1 [Example 18 (S enantiomer), 4-(S)-(3,4-difluorophenyl)-6-methyl-3,4-dihydro-2-pyridinone-5-carboxylic acid{3-[4-(4-fluorophenyl)-piperidine-1-yl]-propyl}amide]
- alpha 1 antagonist activity of the (S) enantiomer relative to the (R) enantiomer ([1]; enantiomer comparison, in words, test not specified): less active
